Data as given in patent US9428456B2, “1-[m-carboxamido(hetero)aryl-methyl]-heterocyclyl-carboxamide derivatives” (Actelion Pharmaceuticals Ltd., priority 2012, dated 2016).
pEC50: −log10 of the molar value.

target: CXCR7 (Homo sapiens (Human), UniProt P25106); test: PathHunter CHO-K1 CXCR7 b-arrestin assay (agonistic activity); format: cell-based; conditions: PathHunter CHO-K1 CXCR7 b-arrestin cell line
In short: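 CHO-K1 cells co-expressing ProLink-tagged CXCR7 and EA-fused β-arrestin 2 (enzyme fragment complementation); compounds added in HBSS/20 mM HEPES/0.2% BSA after 3–4 h in OPTIMEM, 90 min at 37 °C. Chemiluminescent β-gal signal read after 1 h detection at room temperature; EC50 reported as geometric mean of several measurements.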

Chain of CXCR7 (P25106 whole entry, the tested form may be a part): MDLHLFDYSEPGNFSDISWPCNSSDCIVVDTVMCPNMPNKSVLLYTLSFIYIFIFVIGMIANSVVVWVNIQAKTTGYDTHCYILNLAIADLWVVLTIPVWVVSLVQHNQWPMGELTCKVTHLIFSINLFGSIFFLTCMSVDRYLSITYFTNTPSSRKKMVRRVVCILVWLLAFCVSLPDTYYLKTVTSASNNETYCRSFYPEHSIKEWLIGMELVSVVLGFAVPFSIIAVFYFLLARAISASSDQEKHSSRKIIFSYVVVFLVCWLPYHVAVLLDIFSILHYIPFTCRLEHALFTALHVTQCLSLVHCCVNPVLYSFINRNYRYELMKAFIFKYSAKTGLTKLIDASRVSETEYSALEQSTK
Chain of CXCR7 (P32121 whole entry partner, the tested form may be a part): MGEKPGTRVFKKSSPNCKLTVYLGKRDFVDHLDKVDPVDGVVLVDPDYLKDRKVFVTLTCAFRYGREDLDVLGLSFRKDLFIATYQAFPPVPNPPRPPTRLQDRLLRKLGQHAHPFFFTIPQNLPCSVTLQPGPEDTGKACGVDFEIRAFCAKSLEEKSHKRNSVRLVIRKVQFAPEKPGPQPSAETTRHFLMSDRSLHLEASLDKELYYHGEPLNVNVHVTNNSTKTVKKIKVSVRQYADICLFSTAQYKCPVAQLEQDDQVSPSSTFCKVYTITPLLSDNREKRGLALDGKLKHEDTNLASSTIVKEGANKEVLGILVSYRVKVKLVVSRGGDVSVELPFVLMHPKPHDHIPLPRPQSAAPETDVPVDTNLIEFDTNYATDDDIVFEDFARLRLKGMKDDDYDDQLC

In order of falling pEC50:
1. CC(C)(C)NC(=O)C1CCN(Cc2cccc(NC(=O)c3ccc(Cl)cn3)c2)CC1 [Example 1.339]  9.22
2. CC(C)(C)NC(=O)C1CCN(Cc2cccc(NC(=O)c3ccc(F)cn3)c2)CC1 [Example 4.020, 5-Fluoro-pyridine-2-carboxylic acid [3-(4-tert-butylcarbamoyl-piperidin-1-ylmethyl)-phenyl]-amide]  9.22
3. CC(C)(C)NC(=O)C1CCN(Cc2cccc(NC(=O)c3ncc(Cl)cc3F)c2)CC1 [Example 1.340]  9.15
4. CCC(C)(C)NC(=O)C1CCN(Cc2cccc(NC(=O)c3ccc(Cl)cn3)c2)CC1 [Example 1.338]  9.10
5. CC(C)(C)NC(=O)C1CCN(Cc2cccc(NC(=O)c3cccc(Br)n3)c2)CC1 [Example 1.344]  9.05
6. CCC(C)(C)NC(=O)C1CCN(Cc2cccc(NC(=O)c3ccc(C(F)(F)F)cn3)c2)CC1 [Example 1.341]  9.00
7. CCC(C)(C)NC(=O)C1CCN(Cc2cccc(NC(=O)c3ncc(Cl)cc3F)c2)CC1 [Example 1.343]  9.00
8. CC(C)(C)NC(=O)C1CCN(Cc2cccc(NC(=O)c3cccc(C(F)(F)F)[n+]3[O-])c2)CC1 [Example 1.345]  9.00
9. CCC(C)(C)NC(=O)C1CCN(Cc2cccc(NC(=O)c3cccc(C(F)(F)F)[n+]3[O-])c2)CC1 [Example 1.346]  9.00
10. CCc1ccc(CN2CCC(C(=O)NC(C)(C)C)CC2)cc1NC(=O)c1cccc(C(F)(F)F)n1 [Example 1.326]  8.70
11. CCC(C)(C)NC(=O)C1CCN(Cc2cccc(NC(=O)c3ccc(F)c[n+]3[O-])c2)CC1 [Example 4.021, 5-Fluoro-1-oxy-pyridine-2-carboxylic acid {3-[4-(1,1-dimethyl-propylcarbamoyl)-piperidin-1-ylmethyl]-phenyl}amide]  8.70
12. CCC(C)(C)NC(=O)C1CCN(Cc2cccc(NC(=O)c3ccc(Cl)c[n+]3[O-])c2)CC1 [Example 4.025, 5-Chloro-1-oxy-pyridine-2-carboxylic acid {3-[4-(1,1-dimethyl-propylcarbamoyl)-piperidin-1-ylmethyl]-phenyl}amide]  8.70
13. CC(C)(C)NC(=O)C1CCN(Cc2cccc(NC(=O)c3ccc4ncsc4c3)c2)CC1 [Example 1.353]  8.52
14. CC(C)(C)NC(=O)C1CCN(Cc2cccc(NC(=O)c3ccc4snnc4c3)c2)CC1 [Example 1.355]  8.52
15. C[C@H]1C[C@@H](C(=O)NC2CCCCC2)CCN1Cc1cccc(NC(=O)c2cccc(C(F)(F)F)n2)c1 [Example 2.105, 6-Trifluoromethyl-pyridine-2-carboxylic acid [3-((2S,4S)-4-cyclohexylcarbamoyl-2-methyl-piperidin-1-ylmethyl)-phenyl]-amide or 6-trifluoromethyl-pyridine-2-carboxylic acid [3-((2R,4R)-4-cyclohexylcarbamoyl-2-methyl-piperidin-1-ylmethyl)-phenyl]-amide]  8.52
16. CC(C)(C)NC(=O)C1CCN(Cc2cccc(NC(=O)c3ccc(Cl)c[n+]3[O-])c2)CC1 [Example 4.024, 5-Chloro-1-oxy-pyridine-2-carboxylic acid [3-(4-tert-butylcarbamoyl-piperidin-1-ylmethyl)-phenyl]-amide]  8.52
17. Cc1cncc(C(=O)Nc2cccc(CN3CCC(C(=O)NC4CCCC4)CC3)c2)c1 [Example 6.002, N-(3-((4-(cyclopentylcarbamoyl)piperidin-1-yl)d2methyl)phenyl)-5-methylnicotinamide]  8.40
18. CC(C)(C)NC(=O)C1CCN(Cc2cccc(NC(=O)c3ccc(N)cn3)c2)CC1 [Example 8.001, 5-Amino-pyridine-2-carboxylic acid [3-(4-tert-butylcarbamoyl-piperidin-1-ylmethyl)-phenyl]-amide]  8.40
19. Cc1cncc(C(=O)Nc2cccc(CN3CCC(C(=O)NC4CCCCC4)CC3)c2)c1 [Example 6.001, N-(3-((4-(cyclohexylcarbamoyl)piperidine-1-yl)d2methyl)phenyl)-5-methylnicotinamide]  8.30
20. rac-6-Trifluoromethyl-pyridine-2-carboxylic acid [3-((2S*,4S*)-4-cyclohexylcarbamoyl-2-methyl-piperidin-1-ylmethyl)-phenyl]-amide [Example 2.101]  8.30
21. CCc1ccc(CN2CCC(C(=O)NC(C)(C)C)CC2)cc1NC(=O)c1ccc(F)cc1 [Example 1.328]  8.10
22. CC(C)(C)NC(=O)C1CCN(Cc2cccc(NC(=O)/C=C/c3ccccc3)c2)CC1 [Example 1.337]  8.10
23. CC(C)(C)NC(=O)C1CCN(Cc2cccc(NC(=O)c3ccc(C(F)(F)F)c[n+]3[O-])c2)CC1 [Example 1.348]  8.10
24. COc1cncc(C(=O)Nc2cccc(CN3CCC(C(=O)NC(C)(C)C)CC3)c2)c1 [Example 4.014, N-[3-(4-tert-Butylcarbamoyl-piperidin-1-ylmethyl)-phenyl]-5-methoxy-nicotinmide]  8.10
25. CCc1ccc(NC(=O)c2cccc(C(F)(F)F)n2)cc1CN1CCC(C(=O)NC(C)(C)C)CC1 [Example 1.332]  7.80
26. CCC(C)(C)NC(=O)C1CCN(Cc2cccc(NC(=O)c3ccc(C(F)(F)F)c[n+]3[O-])c2)CC1 [Example 1.347]  7.80
27. CCc1ccc(NC(=O)c2ccc(F)cc2)cc1CN1CCC(C(=O)NC(C)(C)C)CC1 [Example 1.334]  7.77
28. C/C=C/C(=O)Nc1cccc(CN2CCC(C(=O)NC(C)(C)C)CC2)c1 [Example 1.335]  7.68
29. CCc1ccc(CN2CCC(C(=O)NC(C)(C)C)CC2)cc1NC(=O)c1cncc(C)c1 [Example 1.327]  7.55
30. COC(=O)c1cncc(C(=O)Nc2cccc(CN3CCC(C(=O)NC4CCCCC4)CC3)c2)c1 [Example 1.350]  7.54
31. COC(=O)c1cncc(C(=O)Nc2cccc(CN3CCC(C(=O)NC(C)(C)C)CC3)c2)c1 [Example 1.349]  7.47
32. C[C@@H]1C[C@H](C(=O)NC2CCCCC2)CCN1Cc1cccc(NC(=O)c2cccc(C(F)(F)F)n2)c1 [Example 2.106, 6-Trifluoromethyl-pyridine-2-carboxylic acid [3-((2R,4R)-4-cyclohexylcarbamoyl-2-methyl-piperidin-1-ylmethyl)-phenyl]-amide or 6-trifluoromethyl-pyridine-2-carboxylic acid [3-((2S,4S)-4-cyclohexylcarbamoyl-2-methyl-piperidin-1-ylmethyl)-phenyl]-amide]  7.31
33. Cc1cc(C(=O)Nc2cccc(CN3CCC(C(=O)NC(C)(C)C)CC3)c2)c(Cl)nn1 [Example 1.324]  7.29
34. CCc1ccc(NC(=O)c2cncc(C)c2)cc1CN1CCC(C(=O)NC(C)(C)C)CC1 [Example 1.333]  7.24
35. CCc1cc(CN2CCC(C(=O)NC(C)(C)C)CC2)cc(NC(=O)c2ccc(F)cc2)c1 [Example 1.331]  7.21
36. Cc1cc(C(=O)Nc2cccc(CN3CCC(C(=O)NC(C)(C)C)CC3)c2)cnn1 [Example 7.001, 6-Methyl-pyridazine-4-carboxylic acid [3-(4-tert-butylcarbamoyl-piperidin-1-ylmethyl)-phenyl]-amide]  7.21
37. CC(C)(C)NC(=O)C1CCN(Cc2cccc(NC(=O)c3cccc(S(C)(=O)=O)c3)c2)CC1 [Example 1.352]  7.15
38. C=CC(=O)Nc1cccc(CN2CCC(C(=O)NC(C)(C)C)CC2)c1 [Example 1.336]  7.08
39. Cc1nc2cc(C(=O)Nc3cccc(CN4CCC(C(=O)NC(C)(C)C)CC4)c3)ccc2s1 [Example 1.354]  6.97
40. CCc1cc(CN2CCC(C(=O)NC(C)(C)C)CC2)cc(NC(=O)c2cccc(C(F)(F)F)n2)c1 [Example 1.329]  6.80
41. CCC(C)(C)NC(=O)C1CCN(Cc2cccc(NC(=O)c3cc(C)c[n+]([O-])c3)c2)CC1 [Example 4.023, N-{3-[4-(1,1-Dimethyl-propylcarbamoyl)-piperidin-1-ylmethyl]-phenyl}-5-methyl-1-oxy-nicotinamide]  6.76
42. CC(C)(C)NC(=O)C1CCN(Cc2cccc(NC(=O)c3ccc(S(C)(=O)=O)cc3)c2)CC1 [Example 1.351]  6.75
43. CN(C)C/C=C/C(=O)Nc1cccc(CN2CCC(C(=O)NC(C)(C)C)CC2)c1 [Example 1.342]  6.67
44. Cc1cc(C(=O)Nc2cccc(CN3CCC(C(=O)NC(C)(C)C)CC3)c2)c[n+]([O-])c1 [Example 4.022, N-[3-(4-tert-Butylcarbamoyl-piperidin-1-ylmethyl)-phenyl]-5-methyl-1-oxy-nicotinamide]  6.63
45. COc1cc(CN2CCC(C(=O)NC(C)(C)C)CC2)cc(NC(=O)c2cccc(C(F)(F)F)n2)c1 [Example 1.325]  6.58
46. CCc1cc(CN2CCC(C(=O)NC(C)(C)C)CC2)cc(NC(=O)c2cncc(C)c2)c1 [Example 1.330]  6.55
